Measurements reported in patent publication US10940159B2, “Combination immediate/delayed release delivery system for short half-life pharmaceuticals including remogliflozin” (priority 2010, dated 2021).
Read-outs that look alike come from different tables or passages of the source.

Assays:
[1] = reduced from 9.0%; at mealtime in combination with a sulfonylurea; P<0.0001; cited from earlier work
[2] = Half-life, absorption window and permeability; assay type: in vivo; conditions: for half-life: human
[3] = 12 week clinical studies in T2DM, once daily and twice daily dosing; assay type: in vivo, human
Description: To date, studies have assessed the efficacy, safety and tolerability up to 12 weeks, with varying efficacy so there is a need to characterize the profile of a number of selected formulated doses over a 12-week period. […] However to minimize the time which subjects may have sub-optimal glycemic control, the double blind study medication has been limited to 12 weeks duration. In addition, criteria have been included to allow the introduction of rescue therapy after 6 weeks for those subjects who have a high FP. […] Furthermore, there is evidence that at these doses, there may also be clinically relevant weight loss, a key requirement for new T2DM therapies (20). As doses above 250 mg BID may be associated with relatively small incremental benefits on glycemia and weight loss and there is a trend for better tolerability at lower doses, future studies could have total daily doses less than 500 mg per day. […] It is believed that the primary mechanism for this isolated increase in LDL-c is due a combination of 1) hemoconcentration as a result of the diurectic effect, similar to that seen with diuretics (21, 22) and 2) SGLT2 overnight inhibition. […] Further, a combination IR/SR dose given QD in the morning may also provide meaningful benefits on glycemia and weight loss. From a safety perspective, other than small effects observed on the lipid profile and hematocrit, there was little difference in the safety profile based on the frequency of administration.

Row | Molecule | A1C levels [1] [%] | half-life ([2]; in vivo, read-out: half-life) [h] | half-life ([2]; plasma, read-out: half-life (t½) (converted)) [h] | permeability in the lower portion of the gastrointestinal tract ([2]; in vivo) | window of absorption ([2]; upper gastrointestinal tract, depending upon food intake, individual differences) [h] | LDL-c ([3]; 250 mg and 500 mg bid doses) | LDL-c ([3]; higher QD doses) | hematocrit (surrogate marker for hemoconcentration) ([3]; higher QD doses) | hypoglycemic events ([3]; human, in vivo) | half-life ([2]; in vivo, read-out: half-life (t½) (converted)) [h]
1 | insulin lispro: rapid-acting insulin analog | 7.1 | – | – | – | – | – | – | – | – | –
2 | Cc1c(Cc2ccc(OC(C)C)cc2)c(O[C@@H]2O[C@H](CO)[C@@H](O)[C@H](O)[C@H]2O)nn1C(C)C [remogliflozin] | – | 1.5 to 2 | 1.5 | poor permeability | 3 to 6 | significant increases | no corresponding increases | increases in hematocrit | very little evidence | –
3 | CCOC(=O)OC[C@H]1O[C@@H](Oc2nn(C(C)C)c(C)c2Cc2ccc(OC(C)C)cc2)[C@H](O)[C@@H](O)[C@@H]1O [remogliflozin etabonate, 5-methyl-4-[4-(1-methylethoxy)benzyl]-1-(1-methylethyl)-1H-pyrazol-3-yl 6-O-(ethoxycarbonyl)-β-D-glucopyranoside] | – | – | – | intrinsically poor permeability | – | – | – | – | – | 1.5
